Assay results published in paper PMC9090415, “Discovery of small molecule inhibitors of Plasmodium falciparum apicoplast DNA polymerase” (Journal of Enzyme Inhibition and Medicinal Chemistry, 2022).

Biological target: P. falciparum apicoplast DNA polymerase (Pf-apPOL) (Plasmodium falciparum, UniProt Q8ILY1)
Test: Fluorescence-based high-throughput DNA polymerase assay (molecular beacon), primary screen and dose-response
Format: biochemical
Conditions: for DNA Pol: 90 min, 10 µM; for IC50: supplemental file 2, sheet IC50 nontoxic compounds, Pf-apPOL
Outline: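 Single-point screening used 10 µM compound with 20 nM polymerase, 20 nM hairpin substrate and 6 µM dNTPs for 90 min at 25 °C. Confirmatory titrations (2.5–80 µM) followed fluorescence at three times, and IC50 was derived from a fit including a cooperativity term n.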

[1] = primary screen value by plate and well
[2] = primary screen value of the 186 hits, unit not given

P. falciparum apicoplast DNA polymerase (Pf-apPOL), sequence (Q8ILY1 entry or part of it): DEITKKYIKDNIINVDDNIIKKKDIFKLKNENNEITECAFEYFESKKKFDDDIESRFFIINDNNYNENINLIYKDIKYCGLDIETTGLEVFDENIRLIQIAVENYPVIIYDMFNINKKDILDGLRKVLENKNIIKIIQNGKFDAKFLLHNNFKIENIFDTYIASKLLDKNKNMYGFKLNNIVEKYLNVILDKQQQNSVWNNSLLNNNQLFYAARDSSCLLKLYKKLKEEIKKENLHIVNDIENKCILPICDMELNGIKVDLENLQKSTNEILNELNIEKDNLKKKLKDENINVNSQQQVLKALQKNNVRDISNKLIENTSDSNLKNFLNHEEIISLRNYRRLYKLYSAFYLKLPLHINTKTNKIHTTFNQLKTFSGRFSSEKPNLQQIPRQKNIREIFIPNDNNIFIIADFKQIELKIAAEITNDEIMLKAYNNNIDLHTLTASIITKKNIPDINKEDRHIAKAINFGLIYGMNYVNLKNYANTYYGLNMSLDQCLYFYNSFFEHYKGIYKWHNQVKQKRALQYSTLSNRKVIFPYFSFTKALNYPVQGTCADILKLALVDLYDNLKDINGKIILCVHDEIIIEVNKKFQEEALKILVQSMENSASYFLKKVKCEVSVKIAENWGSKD

SMILES: O=C(CSc1nnc(-c2ccncc2)[nH]1)c1ccc(O)c(O)c1 [Molecule 89, O=C(c1ccc(c(c1)O)O)CSc1nnc([nH]1)c1ccncc1]
- % inhibition Apo pol 10' (DRC-1, concentration 2.5): 60.0938%
- % inhibition Apo pol 10' (DRC-1, concentration 5): 82.0224%
- % inhibition Apo pol 10' (DRC-1, concentration 10): 88.031%
- % inhibition Apo pol 10' (DRC-1, concentration 20): 91.1846%
- % inhibition Apo pol 10' (DRC-1, concentration 40): 93.0486%
- % inhibition Apo pol 10' (DRC-1, concentration 80): 94.9385%
- % inhibition Apol 90' (DRC-1, concentration 2.5): 43.8309%
- % inhibition Apol 90' (DRC-1, concentration 5): 70.0142%
- % inhibition Apol 90' (DRC-1, concentration 10): 80.3522%
- % inhibition Apol 90' (DRC-1, concentration 20): 84.6554%
- % inhibition Apol 90' (DRC-1, concentration 40): 86.229%
- % inhibition Apol 90' (DRC-1, concentration 80): 90.5693%
- % inhibition apPOL 180' (DRC-1, concentration 2.5): 29.303%
- % inhibition apPOL 180' (DRC-1, concentration 5): 56.5831%
- % inhibition apPOL 180' (DRC-1, concentration 10): 70.7438%
- % inhibition apPOL 180' (DRC-1, concentration 20): 76.8269%
- % inhibition apPOL 180' (DRC-1, concentration 40): 78.119%
- % inhibition apPOL 180' (DRC-1, concentration 80): 84.9374%
- % inhibition Apo pol 5' (DRC-2, concentration 2.5): 47%
- % inhibition Apo pol 5' (DRC-2, concentration 5): 49%
- % inhibition Apo pol 5' (DRC-2, concentration 10): 52%
- % inhibition Apo pol 5' (DRC-2, concentration 20): 53%
- % inhibition Apo pol 5' (DRC-2, concentration 40): 57%
- % inhibition Apo pol 5' (DRC-2, concentration 80): 58%
- % inhibition Apol 40' (DRC-2, concentration 2.5): 53%
- % inhibition Apol 40' (DRC-2, concentration 5): 62%
- % inhibition Apol 40' (DRC-2, concentration 10): 68%
- % inhibition Apol 40' (DRC-2, concentration 20): 71%
- % inhibition Apol 40' (DRC-2, concentration 40): 76%
- % inhibition Apol 40' (DRC-2, concentration 80): 78%
- % inhibition ApPOL 90' (DRC-2, concentration 2.5): 50%
- % inhibition ApPOL 90' (DRC-2, concentration 5): 62%
- % inhibition ApPOL 90' (DRC-2, concentration 10): 69%
- % inhibition ApPOL 90' (DRC-2, concentration 20): 73%
- % inhibition ApPOL 90' (DRC-2, concentration 40): 78%
- % inhibition ApPOL 90' (DRC-2, concentration 80): 80%
- % inhibition apPOL 180' (DRC-2, concentration 2.5): 34%
- % inhibition apPOL 180' (DRC-2, concentration 5): 53%
- % inhibition apPOL 180' (DRC-2, concentration 10): 63%
- % inhibition apPOL 180' (DRC-2, concentration 20): 68%
- % inhibition apPOL 180' (DRC-2, concentration 40): 76%
- % inhibition apPOL 180' (DRC-2, concentration 80): 80%
- % inhibition Apol 40' (conc. 2.5, DRC-2): 53%
- % inhibition Apol 40' (conc. 5, DRC-2): 62%
- % inhibition ApPOL 90' (conc. 5, DRC-2): 62%
- % inhibition apPOL 180' (conc. 5, DRC-2): 53%
- % inhibition Apol 40' (conc. 10, DRC-2): 68%
- % inhibition Apo pol 5' (conc. 20, DRC-2): 53%
- % inhibition apPOL 180' (conc. 20, DRC-2): 68%
- % inhibition Apol 40' (conc. 40, DRC-2): 76%
- % inhibition ApPOL 90' (conc. 40, DRC-2): 78%
- % inhibition apPOL 180' (conc. 40, DRC-2): 76%
- % inhibition Apol 40' (conc. 80, DRC-2): 78%
- % inhibition ApPOL 90' (conc. 80, DRC-2): 80%
- % inhibition apPOL 180' (conc. 80, DRC-2): 80%
- DNA Pol [1]: 90
- DNA Pol [2]: 90

SMILES: Cc1cc(C)cc(-n2nc3c(c2NC(=O)c2ccco2)CSC3)c1 [KU0055926]
- % inhibition Apo pol 10' (DRC-1, concentration 2.5): 8.0326%
- % inhibition Apo pol 10' (DRC-1, concentration 5): 29.0516%
- % inhibition Apo pol 10' (DRC-1, concentration 10): 59.7607%
- % inhibition Apo pol 10' (DRC-1, concentration 20): 82.6519%
- % inhibition Apo pol 10' (DRC-1, concentration 40): 88.4046%
- % inhibition Apo pol 10' (DRC-1, concentration 80): 87.3935%
- % inhibition Apol 90' (DRC-1, concentration 2.5): -0.9298%
- % inhibition Apol 90' (DRC-1, concentration 5): 15.258%
- % inhibition Apol 90' (DRC-1, concentration 10): 43.5557%
- % inhibition Apol 90' (DRC-1, concentration 20): 72.7845%
- % inhibition Apol 90' (DRC-1, concentration 40): 86.0941%
- % inhibition Apol 90' (DRC-1, concentration 80): 88.1488%
- % inhibition apPOL 180' (DRC-1, concentration 2.5): -5.803%
- % inhibition apPOL 180' (DRC-1, concentration 5): 4.111%
- % inhibition apPOL 180' (DRC-1, concentration 10): 27.2882%
- % inhibition apPOL 180' (DRC-1, concentration 20): 60.1388%
- % inhibition apPOL 180' (DRC-1, concentration 40): 79.5226%
- % inhibition apPOL 180' (DRC-1, concentration 80): 84.9587%
- % inhibition Apo pol 5' (DRC-2, concentration 2.5): 11%
- % inhibition Apo pol 5' (DRC-2, concentration 5): 21%
- % inhibition Apo pol 5' (DRC-2, concentration 10): 38%
- % inhibition Apo pol 5' (DRC-2, concentration 20): 50%
- % inhibition Apo pol 5' (DRC-2, concentration 40): 54%
- % inhibition Apo pol 5' (DRC-2, concentration 80): 54%
- % inhibition Apol 40' (DRC-2, concentration 2.5): 12%
- % inhibition Apol 40' (DRC-2, concentration 5): 24%
- % inhibition Apol 40' (DRC-2, concentration 10): 41%
- % inhibition Apol 40' (DRC-2, concentration 20): 60%
- % inhibition Apol 40' (DRC-2, concentration 40): 69%
- % inhibition Apol 40' (DRC-2, concentration 80): 71%
- % inhibition ApPOL 90' (DRC-2, concentration 2.5): 10%
- % inhibition ApPOL 90' (DRC-2, concentration 5): 21%
- % inhibition ApPOL 90' (DRC-2, concentration 10): 38%
- % inhibition ApPOL 90' (DRC-2, concentration 20): 60%
- % inhibition ApPOL 90' (DRC-2, concentration 40): 71%
- % inhibition ApPOL 90' (DRC-2, concentration 80): 74%
- % inhibition apPOL 180' (DRC-2, concentration 2.5): 6.36%
- % inhibition apPOL 180' (DRC-2, concentration 5): 13%
- % inhibition apPOL 180' (DRC-2, concentration 10): 27%
- % inhibition apPOL 180' (DRC-2, concentration 20): 53%
- % inhibition apPOL 180' (DRC-2, concentration 40): 68%
- % inhibition apPOL 180' (DRC-2, concentration 80): 74%
- % inhibition Apo pol 5' (conc. 5, DRC-2): 21%
- % inhibition ApPOL 90' (conc. 5, DRC-2): 21%
- % inhibition Apo pol 5' (conc. 10, DRC-2): 38%
- % inhibition ApPOL 90' (conc. 10, DRC-2): 38%
- % inhibition Apol 40' (conc. 20, DRC-2): 60%
- % inhibition ApPOL 90' (conc. 20, DRC-2): 60%
- % inhibition Apo pol 5' (conc. 40, DRC-2): 54%
- % inhibition ApPOL 90' (conc. 40, DRC-2): 71%
- % inhibition Apo pol 5' (conc. 80, DRC-2): 54%
- % inhibition Apol 40' (conc. 80, DRC-2): 71%
- % inhibition ApPOL 90' (conc. 80, DRC-2): 74%
- % inhibition apPOL 180' (conc. 80, DRC-2): 74%
- DNA Pol [1]: 58
- DNA Pol [2]: 58

SMILES: O=C(O)c1cccc(N2N=C(C(F)(F)F)/C(=C/c3ccc(-c4ccccc4[N+](=O)[O-])o3)C2=O)c1 [Molecule 100, O=C1N(N=C(/C/1=C/c1ccc(o1)c1ccccc1N(=O)=O)C(F)(F)F)c1cccc(c1)C(=O)O]
- % inhibition Apo pol 10' (DRC-1, concentration 2.5): 26.1484%
- % inhibition Apo pol 10' (DRC-1, concentration 5): 12.0969%
- % inhibition Apo pol 10' (DRC-1, concentration 10): 67.0777%
- % inhibition Apo pol 10' (DRC-1, concentration 20): 85.2952%
- % inhibition Apo pol 10' (DRC-1, concentration 40): 91.4411%
- % inhibition Apo pol 10' (DRC-1, concentration 80): 91.0692%
- % inhibition Apol 90' (DRC-1, concentration 2.5): 19.5679%
- % inhibition Apol 90' (DRC-1, concentration 5): 4.613%
- % inhibition Apol 90' (DRC-1, concentration 10): 58.3032%
- % inhibition Apol 90' (DRC-1, concentration 20): 83.4364%
- % inhibition Apol 90' (DRC-1, concentration 40): 89.1977%
- % inhibition Apol 90' (DRC-1, concentration 80): 89.0036%
- % inhibition apPOL 180' (DRC-1, concentration 2.5): 13.4923%
- % inhibition apPOL 180' (DRC-1, concentration 5): 1.454%
- % inhibition apPOL 180' (DRC-1, concentration 10): 45.1585%
- % inhibition apPOL 180' (DRC-1, concentration 20): 77.5112%
- % inhibition apPOL 180' (DRC-1, concentration 40): 84.5547%
- % inhibition apPOL 180' (DRC-1, concentration 80): 85.8771%
- % inhibition Apo pol 5' (DRC-2, concentration 2.5): 20%
- % inhibition Apo pol 5' (DRC-2, concentration 5): 27%
- % inhibition Apo pol 5' (DRC-2, concentration 10): 47%
- % inhibition Apo pol 5' (DRC-2, concentration 20): 55%
- % inhibition Apo pol 5' (DRC-2, concentration 40): 63%
- % inhibition Apo pol 5' (DRC-2, concentration 80): 64%
- % inhibition Apol 40' (DRC-2, concentration 2.5): 23%
- % inhibition Apol 40' (DRC-2, concentration 5): 30%
- % inhibition Apol 40' (DRC-2, concentration 10): 51%
- % inhibition Apol 40' (DRC-2, concentration 20): 65%
- % inhibition Apol 40' (DRC-2, concentration 40): 76%
- % inhibition Apol 40' (DRC-2, concentration 80): 78%
- % inhibition ApPOL 90' (DRC-2, concentration 2.5): 21%
- % inhibition ApPOL 90' (DRC-2, concentration 5): 29%
- % inhibition ApPOL 90' (DRC-2, concentration 10): 51%
- % inhibition ApPOL 90' (DRC-2, concentration 20): 65%
- % inhibition ApPOL 90' (DRC-2, concentration 40): 77%
- % inhibition ApPOL 90' (DRC-2, concentration 80): 81%
- % inhibition apPOL 180' (DRC-2, concentration 2.5): 14%
- % inhibition apPOL 180' (DRC-2, concentration 5): 20%
- % inhibition apPOL 180' (DRC-2, concentration 10): 43%
- % inhibition apPOL 180' (DRC-2, concentration 20): 60%
- % inhibition apPOL 180' (DRC-2, concentration 40): 77%
- % inhibition apPOL 180' (DRC-2, concentration 80): 84%
- % inhibition Apo pol 5' (conc. 2.5, DRC-2): 20%
- % inhibition apPOL 180' (conc. 5, DRC-2): 20%
- % inhibition Apol 40' (conc. 10, DRC-2): 51%
- % inhibition ApPOL 90' (conc. 10, DRC-2): 51%
- % inhibition Apol 40' (conc. 20, DRC-2): 65%
- % inhibition ApPOL 90' (conc. 20, DRC-2): 65%
- % inhibition ApPOL 90' (conc. 40, DRC-2): 77%
- % inhibition apPOL 180' (conc. 40, DRC-2): 77%
- DNA Pol [1]: 55
- DNA Pol [2]: 55

SMILES: O=C(CSc1nnc(-c2ccncc2)[nH]1)c1ccc(O)c(O)c1 [Molecule 89]
- IC50: < 2.5 µM

SMILES: CN1CC(=Cc2ccco2)C(=O)C(=Cc2ccco2)C1 [Molecule 65]
- IC50: 7.51 µM
